Columns and labels:
mice injected with CTX = test: T-lymphocyte test; format: in vivo; settings: positive control: CTX 10 mg/kg/d then water p.o.
Description: Mice, body weight of 18-22 g, were randomly divided into a blank control group, positive control group, a higher dose group and a lower dose group, with 10 mice per group. The mice in the treated groups were injected with CTX at a dose of 10 mg/kg/d, and then treated with proteoglycan extracts of Spirulina via p.o., at the same dose as above. The mice in the positive control group were treated with CTX at a dose of 10 mg/kg/d, and then treated with water via p.o. the mice in the control group only were treated with water via p.o. after the treatment was continuously taken for 10 days, the treatment was stopped for 2 days. Blood was harvested from eye sockets of the mice for lymphocyte slices. After incubation and dyeing, T-lymphocyte percentage was determined.

[1] = molecular target: T1, PTK picked up from A431 cell containing the EGFR (Homo sapiens, UniProt P00533); test: Phosphorylation of protein tyrosine kinase (PTK); format: biochemical
T1 construct: we used A431 cell containing the EGFR for picking up PTK; endogenous in cells; host or cells: A431 cells
T1 sequence (P00533 25-1210): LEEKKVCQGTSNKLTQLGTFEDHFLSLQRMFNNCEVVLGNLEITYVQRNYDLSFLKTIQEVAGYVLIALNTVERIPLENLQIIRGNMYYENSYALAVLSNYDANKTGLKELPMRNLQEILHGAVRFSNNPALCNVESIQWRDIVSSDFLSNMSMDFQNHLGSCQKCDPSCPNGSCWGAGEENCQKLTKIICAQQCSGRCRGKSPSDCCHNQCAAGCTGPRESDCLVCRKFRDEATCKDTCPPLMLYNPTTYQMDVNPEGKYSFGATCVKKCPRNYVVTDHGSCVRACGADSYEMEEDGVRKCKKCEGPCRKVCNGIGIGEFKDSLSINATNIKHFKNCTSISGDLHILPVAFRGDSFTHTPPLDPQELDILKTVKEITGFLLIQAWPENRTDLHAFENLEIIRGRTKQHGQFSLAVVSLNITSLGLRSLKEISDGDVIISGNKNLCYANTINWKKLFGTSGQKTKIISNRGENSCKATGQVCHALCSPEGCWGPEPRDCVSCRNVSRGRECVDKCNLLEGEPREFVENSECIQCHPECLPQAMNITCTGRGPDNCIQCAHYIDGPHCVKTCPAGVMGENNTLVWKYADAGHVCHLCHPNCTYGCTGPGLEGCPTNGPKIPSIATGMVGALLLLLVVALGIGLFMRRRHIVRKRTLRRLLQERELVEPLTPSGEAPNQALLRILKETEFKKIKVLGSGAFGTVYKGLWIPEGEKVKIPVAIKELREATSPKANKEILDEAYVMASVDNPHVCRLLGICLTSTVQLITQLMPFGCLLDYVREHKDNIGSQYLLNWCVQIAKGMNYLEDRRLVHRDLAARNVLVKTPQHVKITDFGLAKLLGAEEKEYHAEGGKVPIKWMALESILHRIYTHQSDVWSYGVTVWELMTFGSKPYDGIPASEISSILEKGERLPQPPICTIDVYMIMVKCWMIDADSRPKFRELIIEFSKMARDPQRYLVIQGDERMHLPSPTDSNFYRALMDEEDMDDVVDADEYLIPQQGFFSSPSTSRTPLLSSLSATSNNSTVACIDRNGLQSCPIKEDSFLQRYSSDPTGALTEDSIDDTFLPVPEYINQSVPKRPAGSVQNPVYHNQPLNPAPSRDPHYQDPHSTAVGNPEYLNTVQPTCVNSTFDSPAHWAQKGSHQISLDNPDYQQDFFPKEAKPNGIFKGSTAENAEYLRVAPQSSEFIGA
Source text: Epidermal growth factor receptor (EGFR), a PTK of receptor type, is a single-stranded trans-membrane glycoprotein consisting of 1186 amino acids, whose molecular weight is […], and exists extensively on the epithelial membrane of the mammals. The C end of the EGFR can recognize and activate many cellular substrates after phosphorylated, then effect on metabolization, growth and carcinogenesis of a cell. […] In our research, we used A431 cell containing the EGFR for picking up PTK, so as to observe the effect of the proteoglycan extract of spirulina on phosphorylation of PTK.

SMILES | T-lymphocyte percentage (mice injected with CTX) [%] | inhibition rate ([1]; Results 1, positive control, 2.5 mM) | inhibition rate ([1]; Results 2, positive control, 0.25 mM) | inhibition rate ([1]; Results 3, positive control, 0.25 mM)
O=P1(N(CCCl)CCCl)NCCCO1 (stereo not shown) [CTX] | 25.6 ± 2.51 |  |  | 
N#CC(C#N)=Cc1cc(O)c(O)c(O)c1 [tyrphostin 25] |  | Positive control: 2.5 mM tyrphostin 25, inhibition rate: 100% | Positive control: 0.25 mM tyrphostin 25, inhibition rate: 86.1% | Positive control: 0.25 mM tyrphostin 25, inhibition rate: 80.5%

Reference: patent publication US6893642B1, “Algae protein polysaccharide extraction and use thereof” (priority 1999, dated 2005)
